These results are taken from PubChem BioAssay (NCI).

The structures appear in SMILES notation.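 Results reflect a 48-hour exposure of cells in 96-well plates to compound at five concentrations. GI50 is the concentration that inhibits growth by half. At the TGI there is no net growth.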

Among the test systems are NCI-H226 lung; RPMI-8226 leukemia; A549 NSCLC; SR leukemia; COLO 205 colon; T-47D breast; SK-MEL-28 melanoma; K-562 leukemia; A498 renal; U251 CNS.
Assay in all cases: NCI-60 cell line screen, 48 h

As to `C=CC1=C(C)C2=NC1=CC1=NC(=C(CC)/C1=C/O)C=C1C=C3C(=O)C(C(=O)OC)C(=C4NC(=C2)C(C)C4CCC(=O)OC/C=C(\C)CCCC(C)CCCC(C)CCCC(C)C)C3=N1` (stereo not drawn) (tested in a mixture with another compound), the TGI in the experiment on NCI-H226 lung, in the experiment on RPMI-8226 leukemia, in the experiment on A549 NSCLC, with SR leukemia, in the experiment on COLO 205 colon and in the experiment with T-47D breast was above 100 µM in each case. The TGI with SK-MEL-28 melanoma, in the experiment with K-562 leukemia, in the experiment on A498 renal and in the experiment with U251 CNS was above 100 µM each time.
In the case of `O=C(N/N=C/c1cc2ccccc2c2ccccc12)c1cc(O)c(O)c(O)c1`, the GI50 is 4.47 µM in the experiment on NCI-H226 lung; 7.47 µM with RPMI-8226 leukemia; 12.7 µM in the experiment on A549 NSCLC; 3.72 µM in the experiment on SR leukemia; 3.14 µM with COLO 205 colon; 2.23 µM in the experiment on T-47D breast. Also, the GI50 is 3.57 µM with SK-MEL-28 melanoma, 3.57 µM with K-562 leukemia, 13.3 µM in the experiment with A498 renal and 2.96 µM with U251 CNS. For the same compound, the TGI is 28.4 µM in the experiment on NCI-H226 lung; 46.1 µM in the experiment on RPMI-8226 leukemia; 39.2 µM in the experiment on A549 NSCLC; above 100 µM with SR leukemia; 10.9 µM in the experiment on COLO 205 colon; 7.24 µM in the experiment on T-47D breast. Also, the TGI in the experiment on SK-MEL-28 melanoma is 15.1 µM; with K-562 leukemia, 51 µM; with A498 renal, 27 µM; with U251 CNS it was 14 µM.
For `O=C(Oc1ccc([N+](=O)[O-])cc1)N1CCC(C(O)(c2ccc3c(c2)OCO3)c2ccc3c(c2)OCO3)CC1`, the GI50 in the experiment with NCI-H226 lung, in the experiment on RPMI-8226 leukemia, in the experiment with A549 NSCLC, in the experiment with SR leukemia, with COLO 205 colon and with T-47D breast was above 100 µM throughout. Moreover, the GI50 in the experiment on SK-MEL-28 melanoma, with K-562 leukemia, in the experiment on A498 renal and in the experiment with U251 CNS was above 100 µM each time. Also, the TGI in the experiment with NCI-H226 lung, with RPMI-8226 leukemia, in the experiment with A549 NSCLC, with SR leukemia, in the experiment on COLO 205 colon and in the experiment on T-47D breast was above 100 µM throughout. In addition, the TGI with SK-MEL-28 melanoma, in the experiment with K-562 leukemia, in the experiment on A498 renal and with U251 CNS was above 100 µM each time.
Regarding `NC(C(=O)O)C(N)C(=O)O` (stereo not drawn), the TGI with NCI-H226 lung, in the experiment on RPMI-8226 leukemia, in the experiment on A549 NSCLC, in the experiment with SR leukemia, in the experiment with COLO 205 colon and in the experiment with T-47D breast was above 100 µM each time. For the same compound, the TGI in the experiment with SK-MEL-28 melanoma, with K-562 leukemia, in the experiment with A498 renal and in the experiment with U251 CNS was above 100 µM throughout.
Turning to `N#Cc1cccc(Nc2nccc(-c3cnn4ncccc34)n2)c1`, the GI50 in the experiment with NCI-H226 lung is 0.00513 µM; with RPMI-8226 leukemia it was 0.00763 µM; in the experiment with A549 NSCLC, 0.00729 µM; in the experiment with SR leukemia, 0.0025 µM; in the experiment with COLO 205 colon, 0.00295 µM; in the experiment with T-47D breast, 0.0182 µM. Further, the GI50 in the experiment on SK-MEL-28 melanoma is 0.00408 µM; in the experiment on K-562 leukemia, 0.00782 µM; in the experiment with A498 renal, 0.00371 µM; with U251 CNS, 0.00552 µM. Further, the TGI is 0.0152 µM in the experiment with NCI-H226 lung; 0.0212 µM with RPMI-8226 leukemia; above 25 µM in the experiment on A549 NSCLC; 0.00663 µM with COLO 205 colon; 0.219 µM in the experiment with T-47D breast; 0.0125 µM with SK-MEL-28 melanoma. Moreover, the TGI with K-562 leukemia is above 25 µM; with A498 renal, 0.0091 µM; with U251 CNS it was above 25 µM.
For `Cc1cc(N2CCN(C)CC2)nc(NC2CCCC(Nc3ccnc4cc(Cl)ccc34)C2)n1` (stereo not drawn), the GI50 with NCI-H226 lung was 3.01 µM; with RPMI-8226 leukemia, 1.68 µM; with A549 NSCLC, 3.14 µM; with SR leukemia it was 0.643 µM; with COLO 205 colon it was 1.68 µM; in the experiment with T-47D breast, 1.91 µM. The GI50 in the experiment on SK-MEL-28 melanoma is 1.8 µM; in the experiment with K-562 leukemia, 0.451 µM; in the experiment on A498 renal, 4.31 µM; with U251 CNS, 2.02 µM. In addition, the TGI was 10.3 µM in the experiment with NCI-H226 lung; 4.95 µM with RPMI-8226 leukemia; 11 µM in the experiment with A549 NSCLC; 5.23 µM in the experiment on SR leukemia; 3.45 µM with COLO 205 colon; 4.6 µM in the experiment with T-47D breast. The TGI was 3.7 µM in the experiment on SK-MEL-28 melanoma, 3.92 µM in the experiment on K-562 leukemia, 15.1 µM in the experiment on A498 renal and 4.33 µM in the experiment on U251 CNS.
With `O=c1cccc(C#CCCCCOC2CCCO2)o1` (stereo not drawn), the GI50 in the experiment on NCI-H226 lung was 17.8 µM; in the experiment with RPMI-8226 leukemia, 2.93 µM; in the experiment with A549 NSCLC, 9.16 µM; with SR leukemia, 20.4 µM; in the experiment with COLO 205 colon, 16.1 µM; with T-47D breast, 22.7 µM. Also, the GI50 in the experiment on SK-MEL-28 melanoma is 23.9 µM; in the experiment with K-562 leukemia, 52.3 µM; in the experiment with A498 renal, 4.09 µM; with U251 CNS, 28.8 µM. Further, the TGI is 56.2 µM with NCI-H226 lung; 63.7 µM in the experiment with RPMI-8226 leukemia; above 48.8 µM with A549 NSCLC; above 100 µM in the experiment on SR leukemia; above 31.1 µM in the experiment with COLO 205 colon; above 48.8 µM in the experiment with T-47D breast. Besides, the TGI in the experiment on SK-MEL-28 melanoma was above 56.8 µM; in the experiment with K-562 leukemia, above 100 µM; with U251 CNS, above 70.1 µM.
With `O=C1Nc2ccccc2SC1C1SC(=S)N(Cc2ccccc2)C1=O` (stereo not drawn), the GI50 was 17 µM in the experiment with NCI-H226 lung; 0.488 µM in the experiment on RPMI-8226 leukemia; 16 µM in the experiment on A549 NSCLC; 4.03 µM in the experiment with SR leukemia; 3.38 µM in the experiment on COLO 205 colon; 0.815 µM in the experiment on T-47D breast. Further, the GI50 in the experiment with SK-MEL-28 melanoma was 4.99 µM; in the experiment on K-562 leukemia it was 2.65 µM; in the experiment on A498 renal, 14.6 µM; in the experiment on U251 CNS it was 3.14 µM. Also, the TGI in the experiment with NCI-H226 lung was 35 µM; in the experiment with RPMI-8226 leukemia it was 7.39 µM; with A549 NSCLC, above 51.4 µM; with SR leukemia it was above 78.2 µM; in the experiment on COLO 205 colon, 17.8 µM; in the experiment on T-47D breast it was 21.1 µM. Besides, the TGI is 18 µM in the experiment with SK-MEL-28 melanoma, above 81.1 µM in the experiment on K-562 leukemia, 32.9 µM in the experiment with A498 renal and 12.2 µM with U251 CNS.
For the compound `c1ccc(-c2cc(-c3cc(-c4ccccn4)[nH]n3)n[nH]2)nc1`, the TGI was above 100 µM with NCI-H226 lung; above 100 µM in the experiment on RPMI-8226 leukemia; above 100 µM in the experiment on A549 NSCLC; 80.6 µM in the experiment with SR leukemia; above 100 µM with COLO 205 colon; above 100 µM in the experiment on T-47D breast. Moreover, the TGI in the experiment on SK-MEL-28 melanoma, in the experiment on K-562 leukemia, in the experiment on A498 renal and in the experiment on U251 CNS was above 100 µM each time.
